Series [1] has as its system Foreskin fibroblasts (HFF-1). The series is described as follows: Collagen ELISA (procollagen type I in culture media). The series is classed as cell-based. The following applies: Fr3 0.1 μg/mL versus EGF 1 μg/mL, HFF-1 foreskin fibroblasts, 24 h. As to the method:
(§1) Figure 1 Fibroblast-activating (FA) and melanin-inhibiting (MI) domain mapping of AIMP1-derived peptide (AdP): (a) Foreskin fibroblasts were treated with EGF (1 μg/mL), AdP (0.1 μg/mL), and fragments of AdP (Fr1–Fr6; 0.1 μg/mL). After 24 h incubation, procollagen type I was determined in cultured media by ELISA; (b) after 48 h incubation, CCK8-assay was performed to monitor the proliferation of foreskin fibroblasts; (c) melanocytes, pre-treated with α-MSH (0.5 μM), were treated with albutin (At, 10 μM), AdP (1 μg/mL) and fragments of AdP (Fr1–Fr6, 1 μg/mL). After 48 h incubation, intracellular melanin was measured.
Foreskin fibroblast cells (HFF-1; 5 × 10^4 cells/well) were seeded at a 24-well culture plate. Before peptide treatment, cells were pre-incubated with serum-free DMEM media for 6 h. Cells were treated with AdP, hEGF (Sigma-Aldrich, St. Louis, MO, USA) and fragments of AdP for 24 h. After 24 h treatment, media were harvested for collagen ELISA assay. Procollagen type I in the culture media was determined by Procollagen type I ELISA kit (Takara, Kusatsu, Japan) in accordance with the manufacturer instructions. Procollagen type I amount in the media was normalized by the Procollagen type I amount of control group.
(An ELISA detects its analyte on a solid surface through an enzyme-linked reagent.)

Series [2] deals with Foreskin fibroblasts (HFF-1). In words: Fibroblast proliferation assay (CCK-8). Format: cell-based. The following applies: Fr3 0.1 μg/mL versus EGF 1 μg/mL; HFF-1 foreskin fibroblasts, 48 h, CCK-8 assay. As to the method: as §1
Foreskin fibroblast cells (HFF-1; 3 × 10^3 cells/well) were seeded into 96-well plate and cultivated. Cells were replaced with serum-free media and then treated with AdP, hEGF, and fragments of AdP for 48 h. Cell proliferation was determined CCK-8 assay (Dojindo, Kumamoto, Japan) in accordance with the manufacturer instructions. Proliferation was normalized by the proliferation of control group.

In series [3] the test system is keratinocytes (HaCaT cells). The series is described as follows: Cytotoxicity test (CCK-8). The following applies: 10 or 100 μg/mL (up to 100 μg/mL), 24 h, CCK-8 assay, n = 3. The series is classed as cell-based. The method, then: (§2) Figure 2 Non-cytotoxicity and non-immunogenicity of FA-AdP and MI-AdP: (a) To test cytotoxicity of FA-AdP and MI-AdP, keratinocytes (HaCaT cells) were incubated with doxorubicin (Dox, 10 μM), AdP (100 μg/mL), FA-AdP (10 or 100 μg/mL), and MI-AdP (10 or 100 μg/mL). After 24 h incubation, cytotoxicity was determined by CCK-8 assay; (b) for the immunogenicity test, monocytes (THP-1 cells) were used. After 12 h incubation with LPS (50 ng/mL), AdP (100 μg/mL), FA-AdP (10 or 100 μg/mL), and MI-AdP (10 or 100 μg/mL), the TNF-α level was measured in cultured media by ELISA.
(§3) The safety of FA-AdP and MI-AdP was verified in terms of cytotoxicity and immunogenicity. To test the cytotoxicity of the peptides, keratinocytes (HaCaT; 3 × 10^3 cells/well) were seeded into 96-well plate and cultivated. Cells were incubated with doxorubicin (Dox, 10 μM), AdP (100 μg/mL), FA-AdP (10 or 100 μg/mL), or MI-AdP (10 or 100 μg/mL). After 24 h incubation, cytotoxicity was determined by CCK-8 assay (Dojindo) according to the manufacturer’s manual. The immunogenicity of the peptides was evaluated by performing TNF-α ELISA. THP-1 cells (5 × 10^4 cells/well) were seeded on a 24-well plate. Cells were pre-incubated with 1% FBS containing media for 6 h. […] TNF-α amount in conditioned media was assessed by human TNF-α ELISA kit (BD Bioscience, San Jose, CA, USA) in accordance with the manufacturer instructions. […]
(Tetrazolium assays rely on reduction of a dye to a coloured formazan, in cell work by metabolically active cells.)

Series [4] has as its system monocytes (THP-1 cells). In words: Immunogenicity test (TNF-α ELISA). Format: cell-based, human. The following applies: 10 or 100 μg/mL, 12 h, TNF-α ELISA of cultured media, normalized to control, n = 3. As to the method: as §2, §3
Series [5] has as its system Melanocytes (B16F10). In words: Measurement of intracellular melanin in α-MSH induced melanocytes. Format: cell-based. The conditions noted are these: α-MSH 0.5 μM, 48 h. The method, then:
as §1
Melanocytes (B16F10; 1 × 10^5 cells/well) were seeded into 6-well plate and cultivated. To induce melanin synthesis, α-MSH (0.5 μM), melanin inducer, was used. AdP and fragments of AdP were treated with α-MSH (0.5 μM) for 48 h. Intracellular melanin and tyrosinase activity were monitored as previously reported. Briefly, melanocytes (1 × 10^5 cells,) were lysed with 1 N NaOH at 70 °C for 1 h. Intracellular melanin was determined in lysed samples by 490 nm wavelength absorbance using microplate reader (Synergy 2, BioTek, Winooski, VM, USA).

In the case of “Fr3: 14–28 residue fragment of AIMP1; fibroblast-activating domain of AdP (KGAEADQIIEYLKQQ; UniProt Q12904 14-28, looked up, fragment)”, in series [1], the “collagen induction, more potent than EGF” value was determined as 15%. The “fibroblast proliferation, more potent than EGF” value in series [2] came to 10%. In addition, the cytotoxicity in keratinocytes result in series [3] is “no cytotoxicity”. Moreover, the “TNF-α level compared with that of the control group” value in series [4] is “no significant difference”.

Regarding “Fr4: 18–32 residue fragment of AIMP1; melanocyte-inhibiting domain of AdP (ADQIIEYLKQQVSLL; UniProt Q12904 18-32, looked up, fragment)”, in series [5] (Fr4 1 μg/mL versus albutin 10 μM), the “inhibition effect on melanin synthesis, higher than albutin” value was found to be 35%. The “inhibition of melanin synthesis induced by α-MSH, compared with AdP” value in series [5] (1 μg/mL, intracellular melanin by absorbance at 490 nm, mean n = 3, versus AdP 1 μg/mL) is listed as “comparable inhibition”. In addition, the cytotoxicity in keratinocytes entry in series [3] is on record as “no cytotoxicity”. The “TNF-α level compared with that of the control group” value in series [4] was “no significant difference”.

Source of the values: PMC6572189, “Functional Fragments of AIMP1-Derived Peptide (AdP) and Optimized Hydrosol for Their Topical Deposition by Box-Behnken Design” (Molecules, 2019).
